Molecules are shown by their SMILES. pKi: −log10 of the molar value.

Assay [1] addresses NMDA receptors. Kind of assay: NMDA receptor affinity (MK 801 binding). As for the experimental part: The affinity and selectivity of the compounds described above in greater detail for sigma receptors in comparison with NMDA receptors were determined following published methods (Kornhuber et al.: Eur. J. Pharmacol. 162, 483-490, 1989 and Neurosci. Lett. 163, 129-131, 1993).

Assay [2] deals with Sigma receptors (Homo sapiens, UniProt Q99720). Kind of assay: Sigma receptor affinity (pentazocine binding).
Sigma receptors, sequence (Q99720 whole entry): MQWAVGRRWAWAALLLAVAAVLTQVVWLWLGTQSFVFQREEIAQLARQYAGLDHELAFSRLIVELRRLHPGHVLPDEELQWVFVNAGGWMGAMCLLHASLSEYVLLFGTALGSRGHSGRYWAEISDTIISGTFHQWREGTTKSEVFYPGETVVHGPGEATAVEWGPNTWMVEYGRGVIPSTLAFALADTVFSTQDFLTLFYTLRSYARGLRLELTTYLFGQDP

The pKi is −log10 of the Ki, conventionally taken in molar units. Higher therefore signals a low Ki. On to `NC12CC3CC(CC(C3)C1)C2` [Amantadine], for which, in assay [1], the pKi was 4.98.

With `CC(C)(C)N1CCC(c2ccccc2)(c2ccccc2)CC1` [Budipine, budipine], the pKi in assay [2] is 5.70; in assay [1] it was 4.93.

On to `CC12CC3CC(C)(C1)CC(N)(C3)C2` [Memantine], for which the pKi was 4.70 in assay [2] and 6.30 in assay [1].
